Values of other authors, collected in patent US20030129616A1, “Use of a mutation in the gene for the beta3-subunit of human g-protein” (priority 2000, published 2003).

System: bladder tumor cells

In the case of pertussis toxin, the “migration of bladder tumor cells” value is listed as “greatly inhibited”.
